Source: ChEMBL document CHEMBL3751674, “Synthesis, antimicrobial activity of Schiff base compounds of cinnamaldehyde and amino acids” (2016)

How the values were obtained:
Assay type in all cases: functional
Settings in all cases: read-out: DIZ
Aspergillus niger [1] = assay: Antifungal activity against Aspergillus niger at 0.03 mol/L after 2 to 4 days by paper disc method
Penicillium citrinum [2] = assay: Antifungal activity against Penicillium citrinum at 0.13 mol/L after 2 to 4 days by paper disc method
Penicillium citrinum [3] = assay: Antifungal activity against Penicillium citrinum at 0.06 mol/L after 2 to 4 days by paper disc method
Penicillium citrinum [4] = assay: Antifungal activity against Penicillium citrinum at 0.03 mol/L after 2 to 4 days by paper disc method
Escherichia coli [5] = assay: Antibacterial activity against Escherichia coli at 0.06 mol/L after 12 to 24 hrs by paper disc method
Escherichia coli [6] = assay: Antibacterial activity against Escherichia coli at 0.13 mol/L after 12 to 24 hrs by paper disc method
Staphylococcus aureus [7] = assay: Antibacterial activity against Staphylococcus aureus at 0.06 mol/L after 12 to 24 hrs by paper disc method
Aspergillus niger [8] = assay: Antifungal activity against Aspergillus niger at 0.13 mol/L after 2 to 4 days by paper disc method
Staphylococcus aureus [9] = assay: Antibacterial activity against Staphylococcus aureus at 0.13 mol/L after 12 to 24 hrs by paper disc method
Escherichia coli [10] = assay: Antibacterial activity against Escherichia coli at 0.03 mol/L after 12 to 24 hrs by paper disc method
Staphylococcus aureus [11] = assay: Antibacterial activity against Staphylococcus aureus at 0.25 mol/L after 12 to 24 hrs by paper disc method
Penicillium citrinum [12] = assay: Antifungal activity against Penicillium citrinum at 0.25 mol/L after 2 to 4 days by paper disc method
Escherichia coli [13] = assay: Antibacterial activity against Escherichia coli at 0.25 mol/L after 12 to 24 hrs by paper disc method
Aspergillus niger [14] = assay: Antifungal activity against Aspergillus niger at 0.06 mol/L after 2 to 4 days by paper disc method
Staphylococcus aureus [15] = assay: Antibacterial activity against Staphylococcus aureus at 0.03 mol/L after 12 to 24 hrs by paper disc method
Aspergillus niger [16] = assay: Antifungal activity against Aspergillus niger at 0.25 mol/L after 2 to 4 days by paper disc method

## CC(C)[C@H](/N=C/C=C/c1ccccc1)C(=O)O
Aspergillus niger [1]
  zone of inhibition at 30000 µM: 8 mm
Penicillium citrinum [2]
  zone of inhibition at 130000 µM: 9.7 mm
Penicillium citrinum [3]
  zone of inhibition at 60000 µM: 8 mm
Penicillium citrinum [4]
  zone of inhibition at 30000 µM: 9 mm
Escherichia coli [5]
  zone of inhibition at 60000 µM: 11 mm
Escherichia coli [6]
  zone of inhibition at 130000 µM: 8 mm
Staphylococcus aureus [7]
  zone of inhibition at 60000 µM: 8 mm
Aspergillus niger [8]
  zone of inhibition at 130000 µM: 12.3 mm
Staphylococcus aureus [9]
  zone of inhibition at 130000 µM: 8 mm
Escherichia coli [10]
  zone of inhibition at 30000 µM: 8 mm
Staphylococcus aureus [11]
  zone of inhibition at 250000 µM: 8 mm
Penicillium citrinum [12]
  zone of inhibition at 250000 µM: 12.5 mm
Escherichia coli [13]
  zone of inhibition at 250000 µM: 9 mm
Aspergillus niger [14]
  zone of inhibition at 60000 µM: 13 mm
Staphylococcus aureus [15]
  zone of inhibition at 30000 µM: 8 mm
Aspergillus niger [16]
  zone of inhibition at 250000 µM: 12.7 mm

## O=C(O)C[C@H](/N=C/C=C/c1ccccc1)C(=O)O
Aspergillus niger [1]
  zone of inhibition at 30000 µM: 12.7 mm
Penicillium citrinum [2]
  zone of inhibition at 130000 µM: 28 mm
Penicillium citrinum [3]
  zone of inhibition at 60000 µM: 14.8 mm
Penicillium citrinum [4]
  zone of inhibition at 30000 µM: 10.3 mm
Escherichia coli [5]
  zone of inhibition at 60000 µM: 12 mm
Escherichia coli [6]
  zone of inhibition at 130000 µM: 17.3 mm
Staphylococcus aureus [7]
  zone of inhibition at 60000 µM: 8 mm
Aspergillus niger [8]
  zone of inhibition at 130000 µM: 24 mm
Staphylococcus aureus [9]
  zone of inhibition at 130000 µM: 8 mm
Escherichia coli [10]
  zone of inhibition at 30000 µM: 8 mm
Staphylococcus aureus [11]
  zone of inhibition at 250000 µM: 18 mm
Penicillium citrinum [12]
  zone of inhibition at 250000 µM: 40.7 mm
Escherichia coli [13]
  zone of inhibition at 250000 µM: 25 mm
Aspergillus niger [14]
  zone of inhibition at 60000 µM: 19.3 mm
Staphylococcus aureus [15]
  zone of inhibition at 30000 µM: 8 mm
Aspergillus niger [16]
  zone of inhibition at 250000 µM: 29.7 mm

## COc1ccc(/C=C/C=N/CC(=O)O)cc1
Aspergillus niger [1]
  zone of inhibition at 30000 µM: 11.3 mm
Penicillium citrinum [2]
  zone of inhibition at 130000 µM: 11.7 mm
Penicillium citrinum [3]
  zone of inhibition at 60000 µM: 8.7 mm
Penicillium citrinum [4]
  zone of inhibition at 30000 µM: 11.5 mm
Escherichia coli [5]
  zone of inhibition at 60000 µM: 8 mm
Escherichia coli [6]
  zone of inhibition at 130000 µM: 8 mm
Staphylococcus aureus [7]
  zone of inhibition at 60000 µM: 9 mm
Aspergillus niger [8]
  zone of inhibition at 130000 µM: 17.7 mm
Staphylococcus aureus [9]
  zone of inhibition at 130000 µM: 8 mm
Escherichia coli [10]
  zone of inhibition at 30000 µM: 8 mm
Staphylococcus aureus [11]
  zone of inhibition at 250000 µM: 8.7 mm
Penicillium citrinum [12]
  zone of inhibition at 250000 µM: 21 mm
Escherichia coli [13]
  zone of inhibition at 250000 µM: 13.5 mm
Aspergillus niger [14]
  zone of inhibition at 60000 µM: 8 mm
Staphylococcus aureus [15]
  zone of inhibition at 30000 µM: 8 mm
Aspergillus niger [16]
  zone of inhibition at 250000 µM: 23.3 mm

## CC(C)C[C@H](/N=C/C=C/c1ccc(Cl)cc1)C(=O)O
Aspergillus niger [1]
  zone of inhibition at 30000 µM: 18.3 mm
Penicillium citrinum [2]
  zone of inhibition at 130000 µM: 25.7 mm
Penicillium citrinum [3]
  zone of inhibition at 60000 µM: 19.7 mm
Penicillium citrinum [4]
  zone of inhibition at 30000 µM: 16.5 mm
Escherichia coli [5]
  zone of inhibition at 60000 µM: 10 mm
Escherichia coli [6]
  zone of inhibition at 130000 µM: 17.8 mm
Staphylococcus aureus [7]
  zone of inhibition at 60000 µM: 16.8 mm
Aspergillus niger [8]
  zone of inhibition at 130000 µM: 20.7 mm
Staphylococcus aureus [9]
  zone of inhibition at 130000 µM: 11 mm
Escherichia coli [10]
  zone of inhibition at 30000 µM: 9.3 mm
Staphylococcus aureus [11]
  zone of inhibition at 250000 µM: 28.3 mm
Penicillium citrinum [12]
  zone of inhibition at 250000 µM: 28.3 mm
Escherichia coli [13]
  zone of inhibition at 250000 µM: 17 mm
Aspergillus niger [14]
  zone of inhibition at 60000 µM: 18.7 mm
Staphylococcus aureus [15]
  zone of inhibition at 30000 µM: 8.7 mm
Aspergillus niger [16]
  zone of inhibition at 250000 µM: 29.3 mm

## O=C(O)C/N=C/C=C/c1ccccc1
Aspergillus niger [1]
  zone of inhibition at 30000 µM: 8 mm
Penicillium citrinum [2]
  zone of inhibition at 130000 µM: 10.7 mm
Penicillium citrinum [3]
  zone of inhibition at 60000 µM: 11 mm
Penicillium citrinum [4]
  zone of inhibition at 30000 µM: 8 mm
Escherichia coli [5]
  zone of inhibition at 60000 µM: 8 mm
Escherichia coli [6]
  zone of inhibition at 130000 µM: 8 mm
Staphylococcus aureus [7]
  zone of inhibition at 60000 µM: 8 mm
Aspergillus niger [8]
  zone of inhibition at 130000 µM: 8.7 mm
Staphylococcus aureus [9]
  zone of inhibition at 130000 µM: 8 mm
Escherichia coli [10]
  zone of inhibition at 30000 µM: 8 mm
Staphylococcus aureus [11]
  zone of inhibition at 250000 µM: 11.7 mm
Penicillium citrinum [12]
  zone of inhibition at 250000 µM: 10.3 mm
Escherichia coli [13]
  zone of inhibition at 250000 µM: 9.3 mm
Aspergillus niger [14]
  zone of inhibition at 60000 µM: 9 mm
Staphylococcus aureus [15]
  zone of inhibition at 30000 µM: 8 mm
Aspergillus niger [16]
  zone of inhibition at 250000 µM: 11 mm

## CC(C)[C@H](/N=C/C=C/c1ccc(Cl)cc1)C(=O)O
Aspergillus niger [1]
  zone of inhibition at 30000 µM: 15.7 mm
Penicillium citrinum [2]
  zone of inhibition at 130000 µM: 31 mm
Penicillium citrinum [3]
  zone of inhibition at 60000 µM: 19.5 mm
Penicillium citrinum [4]
  zone of inhibition at 30000 µM: 20.7 mm
Escherichia coli [5]
  zone of inhibition at 60000 µM: 11 mm
Escherichia coli [6]
  zone of inhibition at 130000 µM: 15.3 mm
Staphylococcus aureus [7]
  zone of inhibition at 60000 µM: 13.5 mm
Aspergillus niger [8]
  zone of inhibition at 130000 µM: 24 mm
Staphylococcus aureus [9]
  zone of inhibition at 130000 µM: 15.3 mm
Escherichia coli [10]
  zone of inhibition at 30000 µM: 12 mm
Staphylococcus aureus [11]
  zone of inhibition at 250000 µM: 33 mm
Penicillium citrinum [12]
  zone of inhibition at 250000 µM: 33.5 mm
Escherichia coli [13]
  zone of inhibition at 250000 µM: 20.5 mm
Aspergillus niger [14]
  zone of inhibition at 60000 µM: 19 mm
Staphylococcus aureus [15]
  zone of inhibition at 30000 µM: 11 mm
Aspergillus niger [16]
  zone of inhibition at 250000 µM: 27.3 mm

## COc1ccc(/C=C/C=N/[C@@H](CC(=O)O)C(=O)O)cc1
Aspergillus niger [1]
  zone of inhibition at 30000 µM: 8 mm
Penicillium citrinum [2]
  zone of inhibition at 130000 µM: 23.7 mm
Penicillium citrinum [3]
  zone of inhibition at 60000 µM: 12.8 mm
Penicillium citrinum [4]
  zone of inhibition at 30000 µM: 8 mm
Escherichia coli [5]
  zone of inhibition at 60000 µM: 10 mm
Escherichia coli [6]
  zone of inhibition at 130000 µM: 10 mm
Staphylococcus aureus [7]
  zone of inhibition at 60000 µM: 8.3 mm
Aspergillus niger [8]
  zone of inhibition at 130000 µM: 22.5 mm
Staphylococcus aureus [9]
  zone of inhibition at 130000 µM: 10.2 mm
Escherichia coli [10]
  zone of inhibition at 30000 µM: 10.3 mm
Staphylococcus aureus [11]
  zone of inhibition at 250000 µM: 8 mm
Penicillium citrinum [12]
  zone of inhibition at 250000 µM: 34.3 mm
Escherichia coli [13]
  zone of inhibition at 250000 µM: 9.5 mm
Aspergillus niger [14]
  zone of inhibition at 60000 µM: 11.2 mm
Staphylococcus aureus [15]
  zone of inhibition at 30000 µM: 8 mm
Aspergillus niger [16]
  zone of inhibition at 250000 µM: 16.3 mm
